Experimental data taken from patent US8728539B2, “Method of enhancing intestinal pinocytosis of immunoglobulins in postnatal domestic mammals” (Incorporated Administrative Agency, National Agriculture …, priority 2004, dated 2014).

How the values were obtained:
calves (Holstein types) [1] = assay: IgG in plasma of postnatal calves fed colostrum with added selenium, measured by radial immuno-diffusion (RID); format: in vivo; conditions: for IgG in Plasma: plasma 24 hours post-parturition
Experimental: In the example, colostrum added with selenium was administered to one of the two calves (Holstein types) in a pair, and colostrum without selenium was administered to the other calf. A total of 32 pairs of calves were employed for experimental purposes. For equalizing the experimental conditions of these two sets of calves, they were selected based on their proximities in body weight. The body weights ranged from 30.8-56.9 kg, and the differences between in body weight within a pair were less than 2.5 kg.
(§1) As a supply source of selenium, sodium selenite was used. In order to avoid different absorption rates of immunoglobulins based on different types of colostrum, the same amounts of colostrum milked from the same source were fed to these two calves in a pair. The colostrums fed (frozen for preservation) were of the four types as follows: the first milking post-parturition (Colostrum 1), the second milking post-parturition (Colostrum 2), the third milking post-parturition (Colostrum 3), and the fourth milking post-parturition (Colostrum 4). 2 liters of Colostrum 1 (1 L×2 bottles) were taken, and for the rest, 4 liters (2L×2 bottles) were taken, respectively. 1 liter of Colostrum 1 within 2 hours post-parturition was fed, and then 2 liters of Colostrum 2, 3 and 4 were fed, respectively 12, 24 and 36 hours post-parturition. The concentrations of immunoglobulins in the colostrums used were 24.3-129.0 mg/ml, and those of selenium were 0.06-0.1 ppm (before adding selenium). The concentrations of immunoglobulins G (IgG) in plasma of calves 24 hours post-parturition were measured by means of radial immuno-diffusion (RID). The experiments as above were carried out while varying the selenium content based on the number of addition of selenium, i.e., (1) adding selenium only to Colostrum 1 (1.0-5.0 ppm), and (2) adding selenium to all four types of colostrum (0.2-4.0 ppm).

[2] = Selenium concentration in plasma of calves after administration (FIG. 4); format: in vivo, calves (Holstein types); conditions: 3 ppm selenium, administered only once within 3 hours postnatal; versus no addition
Source text: as §1, with “ppm). […]” for “ppm).”

calves (Holstein types) [3] = assay: Absorption of lactalbumin into plasma of calves (FIG. 5); format: in vivo; conditions: 3 ppm selenium in first colostrum feed; 24 hours postnatal; versus no addition
Experimental: To calves administered with colostrum with selenium, selenium was added only to the first colostrum feeds.
Therefore, selenium is effective in absorption of nonimmunoglobulin proteins such as lactalbumin. Accordingly, selenium enhances pinocytosis, thereby enhancing immunoglobulin proteins or nonimmunoglobulin proteins.

calves (Holstein types) [4] = assay: Biochemical blood tests (18 factors) for adverse effects of added selenium; format: in vivo; conditions: blood samples 24, 48 hours and 1 week post-parturition; versus colostrum without selenium
Experimental: Moreover, the blood samples were taken 24, 48 hours and 1 week post-parturition respectively, and biochemical blood tests (with 18 factors) were carried out to investigate any adverse effects of added selenium on the health conditions of calves. There was little difference between the test results of the calves administered with colostrum added with selenium, and those of the calves administered with colostrum without selenium.

calves (Holstein types) [5] = assay: IgG in plasma of postnatal calves fed colostrum with added selenium, measured by radial immuno-diffusion (RID); format: in vivo
[6] = 3 ppm selenium, first feed only, versus no addition

O=[Se]([O-])[O-].[Na+].[Na+] [Se, sodium selenite]
IgG in Plasma (calves (Holstein types) [1]; 0.2 ppm Se added to all four colostrum feeds (4x), average of 3 calves): 25.7 mg/mL | IgG in Plasma (calves (Holstein types) [1]; 1 ppm Se added only to first colostrum feed (1x), average of 3 calves): 17 mg/mL | IgG in Plasma (calves (Holstein types) [1]; 1.0 ppm Se added to all four colostrum feeds (4x), average of 5 calves): 32.9 mg/mL | IgG in Plasma (calves (Holstein types) [1]; 2 ppm Se added only to first colostrum feed (1x), average of 3 calves): 16 mg/mL | IgG in Plasma (calves (Holstein types) [1]; 3 ppm Se added only to first colostrum feed (1x), average of 6 calves): 21.5 mg/mL | IgG in Plasma (calves (Holstein types) [1]; 4 ppm Se added only to first colostrum feed (1x), average of 4 calves): 17.4 mg/mL | IgG concentration in plasma, four feeds with selenium versus first feed only with selenium (calves (Holstein types) [1]; 4x versus 1x addition of selenium): about the same level | IgG in Plasma (calves (Holstein types) [1]; 5 ppm Se added only to first colostrum feed (1x), average of 4 calves): 23 mg/mL | IgG concentrations in plasma versus calves given colostrum without selenium (FIGS. 2 and 3) (calves (Holstein types) [1]; in most of the experimental conditions, 1x and 4x addition): shown to be higher | selenium level in blood, temporal change (FIG. 4) [2]: high selenium level in blood was maintained over 4 weeks postnatal | absorption of lactalbumin (FIG. 5) (calves (Holstein types) [3]): enhances the absorption of lactalbumin | adverse effects on the health conditions of calves, biochemical blood tests (18 factors) (calves (Holstein types) [4]): no adverse effects | duration of high immunoglobulin G level in blood (FIG. 7) (calves (Holstein types) [5]; [6]): the high level against no addition was maintained over 14 days (2 weeks) | immunoglobulin G level in blood immediately after administration (FIG. 7) (calves (Holstein types) [5]; [6]): immunoglobulin G level immediately after administration of selenium is high | IgG in Plasma (calves (Holstein types) [5]; 5.0 ppm Se added to all four colostrum feeds (4x), plasma 24 hours post-parturition, average of 4 calves): 24.6 mg/mL | immunoglobulin G level in blood, selenium and colostrum administered separately (FIG. 6) (calves (Holstein types) [5]; only 3 ppm selenium within 2 hours postnatal, then only colostrum at 12, 24, 36 hours, within 24 hours postnatal, versus no addition): absorption level of immunoglobulin G is high
